Measured values: patent US20230140216A1, “COMBINATION THERAPY FOR TREATING MPS1” (GAIN THERAPEUTICS SA, priority 2020, published 2023)

Columns and labels:
[1] = molecular target: T1, Recombinant human α-L-iduronidase protein (Homo sapiens, UniProt P35475); experiment: Differential scanning fluorimetry (DSF) thermal stabilization; assay type: binding
T1 construct: purchased R&D
T1 sequence (P35475 28-653): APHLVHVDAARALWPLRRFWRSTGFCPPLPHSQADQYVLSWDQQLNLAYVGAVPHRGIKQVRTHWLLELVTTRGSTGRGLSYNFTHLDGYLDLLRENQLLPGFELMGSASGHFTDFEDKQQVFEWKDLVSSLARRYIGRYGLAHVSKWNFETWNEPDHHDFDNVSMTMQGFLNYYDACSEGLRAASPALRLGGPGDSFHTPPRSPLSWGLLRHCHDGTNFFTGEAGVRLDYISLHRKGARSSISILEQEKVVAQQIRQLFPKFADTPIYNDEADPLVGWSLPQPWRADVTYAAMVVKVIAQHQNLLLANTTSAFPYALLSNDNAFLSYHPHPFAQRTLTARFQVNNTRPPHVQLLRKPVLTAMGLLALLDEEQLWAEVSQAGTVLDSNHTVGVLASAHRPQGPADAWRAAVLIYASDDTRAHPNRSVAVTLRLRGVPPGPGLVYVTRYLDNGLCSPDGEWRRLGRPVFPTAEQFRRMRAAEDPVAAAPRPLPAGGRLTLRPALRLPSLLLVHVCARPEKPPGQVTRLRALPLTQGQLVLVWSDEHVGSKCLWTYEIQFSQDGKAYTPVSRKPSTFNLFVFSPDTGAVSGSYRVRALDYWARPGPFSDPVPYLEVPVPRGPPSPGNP
How it was run: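 Purified recombinant human α-L-iduronidase (final 0.75 µM) in 100 mM Hepes, 20 mM MgCl2, pH 7 with SYPRO Orange was heated with compounds (final 1% DMSO). Thermal denaturation was followed by probe fluorescence during a temperature ramp, and stabilization expressed as ΔTm, binned into four categories (A–D).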

[2] = molecular target: T2, Aldurazyme (laronidase) IDUA activity in plasma (Homo sapiens, UniProt P35475); experiment: IDUA assay in plasma after i.v. Aldurazyme with or without compound; assay type: in vivo, C57BL/6 male mice; settings: mice, compound 5, 10, 20 mg/kg i.v. + Aldurazyme 1.2 mg/kg i.v.
T2 construct: purchased Aldurazyme; host or cells: administered i.v. to C57BL/6 male mice
T2 sequence (P35475 26-653 limits assumed): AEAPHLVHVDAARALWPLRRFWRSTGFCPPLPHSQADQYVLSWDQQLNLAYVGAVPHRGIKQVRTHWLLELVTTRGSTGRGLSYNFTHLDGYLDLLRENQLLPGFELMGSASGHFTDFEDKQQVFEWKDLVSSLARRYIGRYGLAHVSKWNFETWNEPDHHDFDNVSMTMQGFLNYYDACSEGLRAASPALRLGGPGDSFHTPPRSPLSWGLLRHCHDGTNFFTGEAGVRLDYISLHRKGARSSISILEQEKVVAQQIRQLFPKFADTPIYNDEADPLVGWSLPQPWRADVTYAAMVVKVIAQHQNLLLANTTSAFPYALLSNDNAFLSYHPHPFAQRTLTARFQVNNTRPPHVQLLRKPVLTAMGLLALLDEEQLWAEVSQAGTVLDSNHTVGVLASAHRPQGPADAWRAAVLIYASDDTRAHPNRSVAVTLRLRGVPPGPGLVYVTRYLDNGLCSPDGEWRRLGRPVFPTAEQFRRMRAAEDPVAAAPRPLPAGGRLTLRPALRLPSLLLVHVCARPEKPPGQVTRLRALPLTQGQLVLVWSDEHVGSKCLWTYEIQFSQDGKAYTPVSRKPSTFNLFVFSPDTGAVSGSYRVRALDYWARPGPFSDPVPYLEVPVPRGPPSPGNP
Method: Evaluation of IDUA activity in mouse bone joint cartilage samples obtained from BIO-PCY-19-025 study, where C57BL/6 male mice were administered with 1.2 mg/kg Aldurazyme (i.v. bolus administration) in the presence and absence of Compound A.
Groups Details: • G1: Vehicle 2 +Aldurazyme (1.2 mg/kg,i.v.,) QD×1(n=6) [vehicle 2:NMP (5%) + Solutol HS-15 (5%) + Normal saline (45%) + PEG-400 (45%)]; • G2: Compound A (5 mg/kg, i.v.) + Aldurazyme (1.2 mg/kg, i.v.) QD x 1 (n=6); • G3: Compound A (10 mg/kg, i.v.) + Aldurazyme (1.2 mg/kg, i.v.) QD x 1 (n=6); • G4: Compound A (20 mg/kg, i.v.) + Aldurazyme (1.2 mg/kg, i.v.) QD x 1 (n=6); and • G5: Naïve Control (n=6).
Plasma samples from mice were collected at indicated time points. Plasma samples were diluted in formate buffer and total protein was estimated using Bradford reagent. 25 µl of tissue homogenate and plasma samples were added to 25 µl of 0.18 mM of 4 MUI substrate and incubated at 37° C. for 30 min. Reaction was terminated using 200 µl of stop solution (0.3 M Glycine and 0.2 M sodium carbonate, pH 10.4). Plate was read at excitation 355 nm and emission 460 nm. […]
IDUA activity was assessed from 4-MU standard curve. […] Final IDUA enzyme activity was expressed as nmols/mg of protein/hr. Data was analyzed using GraphPad prism software with one way ANOVA followed by Dunnett’s comparison test. […]

[3] = In vivo safety / IV maximum tolerated dose

## CCN(CC(=O)Nc1c(Cl)cccc1Cl)Cc1nc2ccsc2c(=O)[nH]1 [Compound A]
[1]; DSF dose response, maximum shift
  stabilization of recombinant human IDUA (thermal shift): up to 4 °C
[1]; thermal shift dose response curve
  Kd: 22 µM
[2]
  plasma levels / PK profile of Laronidase: increasing its plasma levels in a dose-dependent manner
[3]; i.v., all doses tested
  safety at tested doses: safe at all doses tested
[3]; mouse, in vivo, iv
  MTD: 45 mg/kg
